Series [1] has as its target HCV protease mutant A156T (Hepatitis C virus genotype 1b, UniProt Q9WMX2, A1182T). The note with it: biochemical assays, read-out: Comparative Ki Values, A156T; cited from earlier work.
Series [2] addresses HCV protease mutant D168A (Hepatitis C virus genotype 1b, UniProt Q9WMX2, D1194A). As to conditions: biochemical assays, cited from earlier work; for IC50: literature, read-out: Comparative IC50 Values, D168A; for Ki: read-out: Comparative Ki Values, D168A.
Series [3] concerns the target T1, wild type HCV NS3/4A 1b protease enzyme (Hepatitis C virus genotype 1b, UniProt P26663).
T1 construct: 10× stocks of NS3/4A protease enzyme from Bioenza (Mountain View, Calif.); purchased Bioenza (Mountain View, Calif.)
Nature of the series: biochemical. It is filed as biochemical. The note with it: read-out: Inhibition, WT; WT enzyme, FRET assay.

Series [4] concerns the target T2, A156T mutant of the HCV NS3/4A 1b protease enzyme (Hepatitis C virus genotype 1b, UniProt P26663, A1182T).
T2 construct: 10× stocks of NS3/4A protease enzyme from Bioenza (Mountain View, Calif.); purchased Bioenza (Mountain View, Calif.)
The series is described as follows: HCV Protease FRET Assay (IC50), A156T mutant. In kind it is biochemical. As to conditions: read-out: Inhibition, HCV A156T; A156T enzyme, FRET assay.

Series [5] concerns the target T3, D168A mutant of the HCV NS3/4A 1b protease enzyme (Hepatitis C virus genotype 1b, UniProt P26663, D1194A).
T3 construct: 10× stocks of NS3/4A protease enzyme from Bioenza (Mountain View, Calif.); purchased Bioenza (Mountain View, Calif.)
Nature of the series: HCV Protease FRET Assay (IC50), D168A mutant. In kind it is biochemical. The note with it: read-out: Inhibition, HCV D168A; D168A enzyme, FRET assay.

Series [6] addresses HCV NS3/4A protease (UniProt Q9WMX2). Nature of the series: Method B: HCV Protease Assay using FRET Methodology. The note with it: read-out: Inhibition, Biochemical; Enzyme/Assay: Biochemical. Also on record: species or system Hepatitis C virus. The text has this: Method B: HCV Protease Assay using FRET Methodology
A quantitative, fluorescence resonance energy transfer (FRET)-based methodology was employed to identify HCV NS3/4A protease inhibitors. The assay employed a synthetic FRET peptide, derived from the HCV NS5A/5B cleavage site, with the HCV protease to evaluate the activity of compounds against the protease by monitoring the cleavage activity of the complex. A synthetic peptide which encompasses the NS5A-5B junction (NH2-EDVVCCSMSYK-COOH) was labeled with Dabcyl and Edans at N- and C-termini, respectively (Invitrogen, Carlsbad, Calif.). Fluorescence measurement was used to estimate the IC50 value of the test compound. […] Upon cleavage of the FRET peptide by HCV NS3/4A proteinase complex (100 ng/mL), the fluorescence is recovered and can be continuously monitored at excitation/emission=340/490 nm.

For series [7], the system named is HCV RNA replicon in cell line ET (luc-ubi-neo/ET), human Huh7 hepatoma. Nature of the series: Method A: HCV RNA replicon antiviral assay (luciferase, ET cell line). As to conditions: Hepatitis C virus, Huh-7. It is filed as cell-based, Hepatitis C virus. Put shortly:
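Six 3-fold dilutions of each drug were tested on subconfluent luc-ubi-neo/ET Huh7 replicon cells (5×10^3/well) for 72 hr at 37 °C. EC50 and EC90 came from luciferase read-out, IC50 from CytoTox-1 cell number, and […]; interferon alpha-2b was run each time as control.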
(In general: In antiviral work, replicon cells carry a viral genome segment that copies itself.)

Series [8] deals with cell line ET (luc-ubi-neo/ET), human Huh7 hepatoma cell line. Nature of the series: Method A: cytotoxicity in ET replicon cells (CytoTox-1). The note with it: concentration decreasing cell viability by 50%, 72 hr. In kind it is cell-based. Put shortly: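 ET cells (Huh7 carrying luciferase HCV replicon), 5×10^3 cells/well, given six 3-fold compound concentrations in DMEM with 5% FBS. After 72 hr, while subconfluent, cell number was measured with CytoTox-1 reagent. Interferon alpha-2b served as positive control.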

Series [9] has as its target T4, HCV R155K (NS3/4A 1b protease) (Hepatitis C virus genotype 1b, UniProt P26663, R1181K).
T4 construct: 10× stocks of NS3/4A protease enzyme from Bioenza (Mountain View, Calif.); purchased Bioenza (Mountain View, Calif.)
Nature of the series: HCV Protease FRET Assay (IC50), R155K mutant. In kind it is biochemical. As to conditions: R155K enzyme, read-out: Inhibition, HCV R155K. As for the experimental part: HCV Protease FRET Assay for Wild Type and Mutated NS3/4A 1b Enzymes (IC50)
The protocol is a modified FRET-based assay (v—02) from In Vitro Resistance Studies of HCV Serine Protease Inhibitors, 2004, JBC, vol. 279, No. 17, pp 17508-17514.
10× stocks of NS3/4A protease enzyme from Bioenza (Mountain View, Calif.) and 1.13× 5-FAM/QXL™ 520 FRET peptide substrate from Anaspec (San Jose, Calif.) were prepared in 50 mM HEPES, pH 7.8, 100 mM NaCl, 5 mM DTT and 20% glycerol. 5 μL of each enzyme were pre-incubated in a Corning (#3573) 384-well, black, non-treated microtiter plate (Corning, N.Y.) for 30 min at 25° C. with a 0.5 μL volume of 50% DMSO and serially diluted compounds prepared in 50% DMSO. Protease reactions were started with the addition of 45 μL of the FRET substrate and monitored for 120 minutes at λex487/λem514 through Quad^4 monochromoters in a Synergy^4 plate reader from BioTek (Winooski, Vt.). At the conclusion of each assay, progress curves from each well were examined for linear reaction kinetics and fit statistics (R^2, absolute sum of squares). Initial velocity (0 minutes to 30+ minutes) from each reaction was determined from the slope of a plot of relative fluorescence units vs time (minutes) and then plotted against inhibitor concentration to estimate IC50 from log[Inhibitor] vs Response, Variable Slope model in GraphPad Prism from GraphPad Software (San Diego, Calif.).
The compound numbers correspond to the compound numbers in Table 3. […] ;

Series [10] deals with T1, wild type HCV NS3/4A 1b protease enzyme. The series is described as follows: HCV Protease FRET Assay (IC50_APP), wild type. The note with it: read-out: IC50_APP, WT; apparent IC50, wild type NS3/4A 1b. It is filed as biochemical.
Series [11] deals with T2, A156T mutant of the HCV NS3/4A 1b protease enzyme. Nature of the series: HCV Protease FRET Assay (IC50_APP), A156T mutant. As to conditions: apparent IC50, A156T mutant; read-out: IC50_APP, HCV A156T. It is filed as biochemical.
In series [12] the target is T3, D168A mutant of the HCV NS3/4A 1b protease enzyme. The series is described as follows: HCV Protease FRET Assay (IC50_APP), D168A mutant. In kind it is biochemical. The note with it: apparent IC50, D168A mutant; read-out: IC50_APP, HCV D168A.
The target of series [13] is T5, R155K mutant of the HCV NS3/4A 1b protease enzyme (Hepatitis C virus genotype 1b, UniProt P26663, R1181K).
T5 construct: 10× stocks of NS3/4A protease enzyme from Bioenza (Mountain View, Calif.); purchased Bioenza (Mountain View, Calif.)
The series is described as follows: HCV Protease FRET Assay (IC50_APP), R155K mutant. In kind it is biochemical. As to conditions: apparent IC50, R155K mutant; read-out: IC50_APP, HCV R155K.

Series [14] concerns the target T6, NS3 protease self-cleavage in Huh-7-Luc-Neo-ET wild-type replicon cells (Hepatitis C virus genotype 1b, UniProt Q9WMX2, E1202G/T1280I).
T6 construct: host or cells: Huh-7-Luc-Neo-ET (human Huh7 hepatoma cells carrying the replicon)
The series is described as follows: Inhibition of protease self cleavage after compound removal, wild-type replicon cells. In kind it is cell-based. The note with it: 16 hours incubation, in as little as 4 hours after removal. As for the experimental part: Inhibition of Protease Self Cleavage
Huh-7-Luc-Neo-ET cells were plated in Replicon Assay Medium (RPMI supplemented with 5% FBS, 1× non-essential amino acids and pen/strep) at a density of 1×10^5 cells/well in 12 well plates. Eight hours later the media was removed and replaced with 1 ml media containing test compound (5 wells per compound) and 0.02% DMSO and the cells were returned to the incubator overnight. Sixteen hours later 1 well from each compound and 1 untreated well were washed with PBS, then lysed and scraped into 30 ul of Cell Extraction Buffer (Biosource, Camarillo, Calif.) plus Complete Protease Inhibitor (Roche, Indianapolis, Ind.). The remaining wells were rinsed 2× with PBS then fed with Replicon Media and returned to the incubator. […]
Cell lysates were separated by SDS-Page (4-20%) and transferred to Immobilon-P PVDF membrane (Millipore Corporation, Mass.) and blotted with polyclonal anti NS3 antibody (Bioenza, Calif.). Blots were scanned on an Odyssey infrared scanner from Licor and the FL band and cleavage products were quantified separately using the Licor software provided with the scanner. The cleavage product was calculated as a percentage of the total NS3 in each sample and then normalized to the DMSO control so that the DMSO control reflects 100% activity.

Where [15] appears, read: assay described in Example 22, read-out: Replicon (IC50).

By Ki is commonly meant the dissociation constant of the complex between target and ligand, obtained from inhibition or displacement. What is called IC90 is the concentration needed for an effect of 90%. Read a high IC90 as a need for much substance.

Read-outs that look alike come from different tables or passages of the source.

Turning to `COc1ccc2c(O[C@@H]3C[C@H]4C(=O)N[C@]5(C(=O)O)C[C@H]5/C=C\CCCCC[C@H](NC(=O)OC5CCCC5)C(=O)N4C3)cc(-c3csc(NC(C)C)n3)nc2c1` [BILN 2061], the Ki in [1] was greater than 1200 nM. Moreover, in [2], the IC50 was 1860 nM and the Ki was greater than 1200 nM.
On to `C=C[C@@H]1C[C@]1(NC(=O)[C@@H]1C[C@@H](Oc2cc(-c3ccccc3)nc3cc(OC)ccc23)CN1C(=O)[C@H](CNC(=O)/C=C/C)NC(=O)OC(C)(C)C)C(=O)NS(=O)(=O)c1ccccc1` [Compound I-2, N-[(1,1-dimethylethoxy)carbonyl]-3-[(2-butenoyl)amino]-L-alanyl-(4R)-4-[(7-methoxy-2-phenyl-4-quinolinyl)oxy]-L-prolyl-1-amino-2-ethenyl-N-(phenylsulfonyl)-(1R,2S)-cyclopropanecarboxamide], for which the IC50 in series [3] was less than 10 nM; in series [4] it was 10 to 100 nM; in [5], 1000 to 10000 nM; in [6], 100 to 1000 nM; in series [7] (Replicon, assay of Example 22, 72 hr, read-out: Inhibition, Replicon), 100 to 1000 nM. Moreover, in series [8], the “Inhibition, Cytotoxicity” value is given as “E (IC50≧10,000 nM)”.
For `C=CC(=O)NC[C@H](NC(=O)OC(C)(C)C)C(=O)N1C[C@H](Oc2nccc3ccc(Br)cc23)C[C@H]1C(=O)N[C@]1(C(=O)NS(=O)(=O)C2CC2)C[C@H]1C=C` [Compound I-73, tert-butyl-(S)-3-acrylamido-1-((2S,4R)-4-(7-bromoisoquinolin-1-yloxy)-2-((1R,2S)-1-(cyclopropylsulfonylcarbamoyl)-2-vinylcyclopropylcarbamoyl)pyrrolidin-1-yl)-1-oxopropan-2-ylcarbamate], the IC50 in [9] was less than 10 nM; in series [7] (setting [15]) it was 10 to 100 nM; in series [10], less than 10 nM; in series [11], 10 to 100 nM; in series [12] it was 100 to 1000 nM; in series [13] it was 10 to 100 nM. Further, in series [7] (assay described in Example 22), the IC90 was in the range of 100 to 1000 nM.
As to `C=CC(=O)N[C@H](C)C(=O)N1C[C@H](Oc2nccc3ccc(Br)cc23)C[C@H]1C(=O)N[C@]1(C(=O)NS(=O)(=O)C2CC2)C[C@H]1C=C` [Compound I-74, (2S,4R)-1-((R)-2-acrylamidopropanoyl)-4-(7-bromoisoquinolin-1-yloxy)-N-((1R,2S)-1-(cyclopropylsulfonylcarbamoyl)-2-vinylcyclopropyl)pyrrolidine-2-carboxamide], the IC50 in series [9] is less than 10 nM; in series [7] (setting [15]), 10 to 100 nM; in series [10], less than 10 nM; in series [11] it was 10 to 100 nM; in series [12] it was 100 to 1000 nM; in [13] it was 10 to 100 nM. Also, in [7] (assay described in Example 22), the IC90 was in the range of 10 to 100 nM.
Take `C=C[C@@H]1C[C@]1(NC(=O)[C@@H]1C[C@@H](Oc2nccc3ccc(Br)cc23)CN1C(=O)[C@H](CCC(=O)C=C(C)C)NC(=O)OC(C)(C)C)C(=O)NS(=O)(=O)C1CC1` [Compound I-75, tert-butyl-(S)-1-((2S,4R)-4-(7-bromoisoquinolin-1-yloxy)-2-((1R,2S)-1-(cyclopropylsulfonylcarbamoyl)-2-vinylcyclopropylcarbamoyl)pyrrolidin-1-yl)-7-methyl-1,5-dioxooct-6-en-2-ylcarbamate]: the IC50 in series [9] is 10 to 100 nM; in [7] (setting [15]), less than 10 nM; in series [10], less than 10 nM; in [11], 100 to 1000 nM; in series [12], 1000 to 10000 nM; in [13], 100 to 1000 nM. The same compound showed an IC90 in series [7] (assay described in Example 22) of 10 to 100 nM.
For the compound `CCC[C@H](NC(=O)[C@@H]1[C@H]2CCC[C@H]2CN1C(=O)[C@@H](NC(=O)[C@@H](NC(=O)c1cnccn1)C1CCCCC1)C(C)(C)C)C(=O)C(=O)NC1CC1` [VX-950], the “Return of NS3 self-cleavage activity after drug removal” value in [14] is “virtually complete return of activity”. For the same compound, the Ki in series [1] is 9900 nM. Moreover, in series [2], the IC50 was 193 nM and the Ki is 150 nM.

These data come from patent US8309685B2 (Celgene Avilomics Research, Inc., priority 2007, dated 2012).
